For experiment [1], the target named is T1, Protein skinhead-1 (Caenorhabditis elegans, UniProt P34707).
T1 sequence (P34707 whole entry): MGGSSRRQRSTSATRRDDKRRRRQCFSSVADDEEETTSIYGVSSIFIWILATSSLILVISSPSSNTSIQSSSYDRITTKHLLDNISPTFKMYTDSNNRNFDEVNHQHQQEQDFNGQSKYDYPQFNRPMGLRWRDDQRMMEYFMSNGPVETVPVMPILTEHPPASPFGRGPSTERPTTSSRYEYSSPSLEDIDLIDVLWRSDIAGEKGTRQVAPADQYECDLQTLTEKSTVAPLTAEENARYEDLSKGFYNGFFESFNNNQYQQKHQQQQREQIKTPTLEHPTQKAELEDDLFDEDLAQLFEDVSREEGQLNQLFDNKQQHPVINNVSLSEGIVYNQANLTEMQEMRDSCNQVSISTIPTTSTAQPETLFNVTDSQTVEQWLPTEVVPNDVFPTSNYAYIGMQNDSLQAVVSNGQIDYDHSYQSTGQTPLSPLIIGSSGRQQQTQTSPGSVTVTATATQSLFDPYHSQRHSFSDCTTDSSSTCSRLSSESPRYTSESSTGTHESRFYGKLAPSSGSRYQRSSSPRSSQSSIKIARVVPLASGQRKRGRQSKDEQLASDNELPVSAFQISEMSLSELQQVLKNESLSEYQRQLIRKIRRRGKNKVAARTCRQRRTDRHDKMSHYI
It is filed as functional.

A short description of experiment [2]: cells. It is filed as functional, cell-based.
Experiment [3] in a line: cells. It is filed as functional, cell-based. This is another data set of the same source.
Experiment [4] in a line: ZM109 Env clade C HIV-1 fusion inhibitors, dose response, HeLa effector, CEM target cells, luciferase, cherry-pick (AID 652058). The experiment is classed as functional, cell-based.
The nature of experiment [5]: microbe, parasite or virus in culture. The experiment is classed as functional. As to conditions: Mycobacterium tuberculosis.
For experiment [6], the target named is Cytochrome P450 2C19 (Homo sapiens, UniProt P33261). The experiment is described as follows: Cytochrome panel assay with activity outcomes. Panel member name: p450-cyp2c19 Compounds with AC50 equal or less than 10 uM are considered active. The experiment is classed as functional. The settings on record: read-out: AC50.
The target of experiment [7] is T2, Cytochrome P450 1A2 (Homo sapiens, UniProt P05177).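 Further: PubChem cytochrome P450 panel assay, CYP1A2 panel member.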
T2 sequence (P05177 whole entry): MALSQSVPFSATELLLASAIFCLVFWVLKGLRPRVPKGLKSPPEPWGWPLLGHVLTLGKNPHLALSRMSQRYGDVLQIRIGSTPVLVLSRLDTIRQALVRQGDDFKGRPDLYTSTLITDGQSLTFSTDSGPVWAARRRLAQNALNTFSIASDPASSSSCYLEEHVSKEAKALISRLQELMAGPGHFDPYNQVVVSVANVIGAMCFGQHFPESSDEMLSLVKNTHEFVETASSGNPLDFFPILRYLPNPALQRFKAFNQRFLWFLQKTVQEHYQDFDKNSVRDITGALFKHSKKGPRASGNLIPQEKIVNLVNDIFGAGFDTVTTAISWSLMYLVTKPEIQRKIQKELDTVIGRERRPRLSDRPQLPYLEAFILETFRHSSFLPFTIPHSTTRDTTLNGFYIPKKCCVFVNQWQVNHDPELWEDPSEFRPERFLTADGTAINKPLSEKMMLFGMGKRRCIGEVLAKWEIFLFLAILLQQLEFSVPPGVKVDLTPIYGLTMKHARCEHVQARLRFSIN

For experiment [8], the target named is Cytochrome P450 3A4 (Homo sapiens, UniProt P08684).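 Further: CYP3A4 tested as one member of a cytochrome P450 panel screen.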
Experiment [9] can be described thus: growth suppression of PTEN-null colon cells, dose response, cell-based, HCT116 PTEN knockout (AID 1047).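 Further: HCT116 colon tumor cells with PTEN knocked out; cells exposed to compound for 60 hours before readout; potency for loss of cell viability measured by luminescence.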 The experiment is classed as functional.
Experiment [10] is described as follows: growth suppression of beta-catenin-knockout colon cells, dose response, cell-based, HCT116, human colon tumor (AID 1045).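 Further: HCT116 colon tumor cells with beta catenin knocked out; cells exposed to compound for 60 hours.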 The experiment is classed as functional.
The nature of experiment [11]: Luminescence Cell-Based Dose Retest to Confirm Inhibitors of Cancer Stem Cells. [Related pubchem assays (depositor defined):AID2717, AID2721]. It is filed as functional. The settings on record: Homo sapiens.
Experiment [12] has as its target Large T antigen (Simian virus 40, UniProt P03070). It is filed as functional, Betapolyomavirus macacae.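 Further: Confirmatory-stage PubChem screen for compounds that inhibit SV40 T antigen.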
A short description of experiment [13]: inhibitors of firefly luciferase expression or activity, dose response, H4 neuroglioma cells, luminescence (AID 1990). The experiment is classed as functional, cell-based.
A short description of experiment [14]: Luminescence Cell-Based Dose Response HTS to Identify Inhibitors of 5'UTR Stem-Loop Driven Prion Protein mRNA Translation in H4 Neuroglioblastoma Cells. [Related pubchem assays: 1827 (Project Summary), 1813 (Primary HTS)]. It is filed as functional.
Experiment [15] is described as follows: inhibitors of SNCA 5'UTR-driven reporter translation, confirmation, H4 neuroglioma cells, luminescence (AID 1988). The experiment is classed as functional, cell-based.
In experiment [16] the test system is H9c2. Briefly: cells. The experiment is classed as functional, cell-based. As to conditions: Rattus norvegicus, H9c2, Myocardium.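 Further: confirmatory concentration-response retest of ultra-high-throughput screening hits for modulation of myocardial damage; cell death induced by hydrogen peroxide oxidative stress; compound pretreatment for 60 min then peroxide exposure for 2 h; potency is for protecting the cells against peroxide damage rather than for killing them.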

By IC50 is commonly meant the midpoint of a concentration-inhibition curve. For orientation: EC50 means the midpoint of the concentration-response curve. The AC50 is the midpoint of the concentration-response curve, whichever way the signal moves.

Molecules are shown by their SMILES. Activity calls are given as the source filed them. Some results are limits rather than exact numbers.

Sequence of Large T antigen (P03070 whole entry): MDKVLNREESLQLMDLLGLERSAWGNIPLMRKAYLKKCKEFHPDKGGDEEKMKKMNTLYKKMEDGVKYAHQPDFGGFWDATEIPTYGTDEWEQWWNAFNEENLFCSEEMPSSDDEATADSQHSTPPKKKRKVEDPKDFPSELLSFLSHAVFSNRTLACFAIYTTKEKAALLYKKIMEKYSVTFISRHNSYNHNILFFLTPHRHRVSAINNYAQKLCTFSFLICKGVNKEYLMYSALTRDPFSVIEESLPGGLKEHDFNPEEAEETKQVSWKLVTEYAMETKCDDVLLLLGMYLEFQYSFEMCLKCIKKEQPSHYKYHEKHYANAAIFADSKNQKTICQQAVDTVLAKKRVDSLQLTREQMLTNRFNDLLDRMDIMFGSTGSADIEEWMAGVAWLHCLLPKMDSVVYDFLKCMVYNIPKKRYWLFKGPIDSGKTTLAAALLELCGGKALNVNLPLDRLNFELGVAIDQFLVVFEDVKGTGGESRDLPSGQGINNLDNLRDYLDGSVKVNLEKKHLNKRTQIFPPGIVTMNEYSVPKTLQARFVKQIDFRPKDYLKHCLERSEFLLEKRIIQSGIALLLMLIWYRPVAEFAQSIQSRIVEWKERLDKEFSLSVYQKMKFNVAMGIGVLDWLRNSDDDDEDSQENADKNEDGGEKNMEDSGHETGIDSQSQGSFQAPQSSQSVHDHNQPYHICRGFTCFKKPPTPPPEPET
Sequence of Cytochrome P450 3A4 (P08684 whole entry): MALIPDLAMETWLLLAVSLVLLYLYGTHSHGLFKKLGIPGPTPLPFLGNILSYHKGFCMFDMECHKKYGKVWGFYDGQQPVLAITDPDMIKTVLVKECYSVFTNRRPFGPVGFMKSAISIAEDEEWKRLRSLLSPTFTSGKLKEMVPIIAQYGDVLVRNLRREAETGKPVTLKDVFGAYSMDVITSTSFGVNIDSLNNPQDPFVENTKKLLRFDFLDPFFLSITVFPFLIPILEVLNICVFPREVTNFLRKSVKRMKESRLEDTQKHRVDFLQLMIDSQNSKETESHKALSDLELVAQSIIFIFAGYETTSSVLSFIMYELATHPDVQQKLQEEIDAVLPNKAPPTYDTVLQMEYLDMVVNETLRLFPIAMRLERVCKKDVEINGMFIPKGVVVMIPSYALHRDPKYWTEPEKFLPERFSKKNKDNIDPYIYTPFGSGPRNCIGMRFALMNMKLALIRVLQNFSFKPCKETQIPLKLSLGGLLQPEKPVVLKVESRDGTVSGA
Sequence of Cytochrome P450 2C19 (P33261 whole entry): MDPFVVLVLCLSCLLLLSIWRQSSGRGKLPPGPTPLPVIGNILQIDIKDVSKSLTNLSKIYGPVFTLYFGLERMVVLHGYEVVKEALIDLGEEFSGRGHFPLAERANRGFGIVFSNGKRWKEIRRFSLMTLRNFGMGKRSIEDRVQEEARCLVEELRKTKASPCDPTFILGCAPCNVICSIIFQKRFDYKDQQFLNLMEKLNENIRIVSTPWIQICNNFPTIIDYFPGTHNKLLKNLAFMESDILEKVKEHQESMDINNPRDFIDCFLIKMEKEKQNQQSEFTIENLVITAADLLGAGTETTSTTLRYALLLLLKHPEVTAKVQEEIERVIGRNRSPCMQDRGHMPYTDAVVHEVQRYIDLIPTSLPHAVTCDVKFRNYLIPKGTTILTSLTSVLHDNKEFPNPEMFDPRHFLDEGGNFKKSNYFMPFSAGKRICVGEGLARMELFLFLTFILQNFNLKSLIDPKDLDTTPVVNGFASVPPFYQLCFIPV

As to `C=CCn1c(CC(=O)Nc2cccc(OC)c2)nnc1SCC(=O)NC1CCCCC1`, the IC50 in [1] is > 100 µM (inactive).

On to `CCOc1ccc(C(=O)NCC2CCCO2)cc1OCC` (stereo not drawn), for which the EC50 in [2] and in experiment [3] was > 350 µM (not active) each time.

Consider `COc1ccc(NC(=O)Nc2ccc(CC(=O)O)cc2)cc1`, for which the EC50 is > 350 µM (not active) in experiment [2] and 139 µM (active) in [3].

Consider `O=C(Nc1ccc(F)cc1)Nc1ccc2c(c1)[C@@H]1C[C@H](CC(=O)N3CCCCC3)O[C@H](CO)[C@@H]1O2`, for which, in experiment [4], the AC50 was 62.5 µM (active).

Consider `CC(C)c1nc(CNC(=O)CCc2nnc(-c3ccsc3)o2)cs1`, for which the EC50 in experiment [2] and in experiment [3] was > 350 µM (not active) in each case.

Take `O=C(c1cc(COc2ccc(F)cc2F)on1)N1CCCC(c2ccccc2)C1` (stereo not drawn): in experiment [5], the CC50 is > 40 µM (active).

With `CCc1ccc2nc(O)c(CN(CCCN3CCOCC3)C(=O)Nc3cccc(Cl)c3)cc2c1`, the CC50 in experiment [5] was 15 µM (active).

For `CCCn1cc(NC(=O)c2cc(-c3ccccc3)on2)cn1`, the values for the EC50 in [2] and in experiment [3] were 143 µM (active) and 2.49 µM (active), respectively.

Take `CC(C)(C)CC(=O)NC(=S)N1CCCCCC1`: the AC50 in experiment [6] was 39.8 µM (inconclusive); in experiment [7], 15.8 µM (inconclusive); in experiment [8], 12.6 µM (inconclusive). Further, the IC50 in experiment [1] is > 100 µM (inactive).

For `COc1ccc(NS(=O)(=O)c2ccc3c(c2)n(C)c(=O)n3C)cc1`, in experiment [1], the IC50 was > 100 µM (inactive).

With `Cc1sc2nc(CN(C(=O)NC3CCCCC3)C3CCCC3)nc(O)c2c1C`, in experiment [5], the CC50 was > 40 µM (active).

With `Cn1cc(C(=O)c2ccc(Cl)cc2)cc1-c1nc2ccccc2n1C`, the CC50 in experiment [5] is > 40 µM (active).

With `CCC(/C=C(\O)c1cccnc1)=N\c1ccc(C)c(C)c1`, the CC50 in experiment [5] is > 40 µM (active).

On to `CC(C)NC(=O)CN(C)S(=O)(=O)c1ccc(F)cc1`, for which the IC50 in experiment [1] is > 100 µM (inactive).

As to `O=[N+]([O-])c1cccc(/C=N/Nc2nc(C(Cl)(Cl)Cl)nc3ccccc23)c1`, the EC50 in experiment [9] is 24.4 µM (active); in [10], 25.2 µM (active).

Consider `COc1cccc(-c2cc(C(F)(F)F)n3nc(C(=O)N4CCC5(CC4)OCCO5)cc3n2)c1`, for which the EC50 in experiment [2] and in [3] was > 350 µM (not active) each time.

For the compound `CCOC(=O)C(C)(C)N(Cc1ccc(Cl)cc1)S(=O)(=O)c1ccc(Cl)c([N+](=O)[O-])c1`, the EC50 in [9] is 14.7 µM (active); in experiment [10], 8.15 µM (active). Besides, the AC50 in [11] was 2.07 µM (active).

Consider `CCOC(=O)C1=C(COC(=O)c2ccc(Cl)cc2[N+](=O)[O-])NC(=O)NC1C` (stereo not drawn), for which the IC50 in [1] is > 100 µM (inactive).

For `Cc1ccc(C)c(-c2cc(C(=O)Nc3cccc(C(=O)O)c3)c3ccccc3n2)c1`, the EC50 in experiment [2] and in experiment [3] was > 350 µM (not active) in each case.

On to `CCc1[nH]nc2c1/C(=N\O)CC(c1ccccc1)C2` (stereo not drawn), for which the EC50 in experiment [9] is 61.3 µM (active); in [10], 91.4 µM (active).

On to `Cc1cc2c(N=O)c(NO)ccc2[nH]1`, for which the IC50 in experiment [12] is 29.3 µM (active). The CC50 in [5] was 5.53 µM (active).

For the compound `CCC(=O)Nc1nc(CC(=O)Nc2ccccc2OC)cs1`, the IC50 in experiment [1] was > 100 µM (inactive).

Turning to `S=C(NN=C1CCN(Cc2ccccc2)CC1)NC1CCCCC1`, the EC50 in experiment [13], in experiment [14] and in [15] was > 120 µM (not active) each time. In addition, the CC50 in experiment [5] is > 40 µM (active).

Take `CCCCCCn1c(COc2ccccc2F)nnc1SCC(=O)N1c2ccccc2NC(=O)C1(C)C`: the EC50 in [9] was 23.5 µM (active); in experiment [10], 26.5 µM (active).

Take `COC(=O)CC1C(=O)NCCN1C(=O)CSc1nnc(Nc2ccc(OC)cc2)s1` (stereo not drawn): the EC50 in experiment [2] and in experiment [3] was > 350 µM (not active) in each case.

In the case of `Cc1cc(C)cc(NC(=O)CSc2ccc(-c3ccccn3)nn2)c1`, the EC50 was 11.7 µM (active) in experiment [13]; > 350 µM (not active) in [2]; 9.74 µM (active) in [14]; 8.69 µM (active) in experiment [15]; > 350 µM (not active) in experiment [3]. Moreover, the AC50 in experiment [11] is 4.57 µM (active). Also, in experiment [16], the IC50 was > 79 µM (inactive).

In the case of `CCCCCCCCNC(=O)C(CCC(=O)OCc1ccccc1)NC(C)=O` (stereo not drawn), in experiment [1], the IC50 is > 100 µM (inactive).

As for `O=C(Nc1ccc2c(c1)OCO2)c1cccc(F)c1`, the IC50 in [1] is > 100 µM (inactive).

(Values after ChEMBL document CHEMBL1201862, “PubChem BioAssay data set” (2004).)
